Measurements published in US20260137711A1, “COMBINATION THERAPY FOR CANCER” (NATIONAL UNIVERSITY OF IRELAND, GALWAY, priority 2022, published 2026).

Tests used:
Type in all cases: cell-based, human
[1] = tested on: MCF10A cells; experiment: Long-term cell proliferation assay, crystal violet staining; details: 31 nM BI-1347 alone, 7 days, compared to controls
Procedure: (a and b) MCF10A cells were plated at equal low density and then either mock treated or treated with 31 nM BI-1347, in the presence or absence of XL413 at a doses of (a) 1.25 μM or (b) 10 μM over a 7 day period. Representative images of crystal violet-stained cells are shown alongside quantitation of crystal violet intensity normalised to the untreated control.
Briefly, MCF10A cells were mock-treated or treated in the continued presence of a dual-specificity CDK8/CDK19 inhibitor, BI-1347, in the presence or absence of XL413 at two different concentrations (1.25 μM and 10 μM) for a 7-day period. Relative cell proliferation was estimated by staining cells with crystal violet and measuring staining intensities. […] Importantly the addition of BI-1347 to XL413 caused a further reduction in cell number with staining intensity decreasing by 70% and 95% respectively.
MCF10A cells were seeded at 4,000 cells per well of a 6 well plate and after 24 hours were treated with inhibitors before being incubated for 7 days at 37° C. with 5% CO2. Media was removed from the cells which were then washed with PBS and air dried before being fixed with 100% methanol for 1 hour. Following removal of methanol the plates were air-dried, stained with crystal violet staining solution (0.2% crystal violet, 25% methanol) for 1 hour at room temperature, washed with ddH2O and air-dried. Plates were scanned using a HP Scanjet 4050, to generate images of crystal violet stained cells, and crystal violet staining intensity was acquired using the Odyssey infrared imaging system and Image Studio software (LI-COR Biosciences).

[2] = tested on: MCF10A cells; experiment: Flow cytometry of cell cycle distribution and DNA synthesis (EdU/DAPI)
Procedure: (c) A typical profile obtained by flow cytometry of MCF10A cells labelled with EdU and DAPI that indicates the gating applied in order to determine the percentage of cells with sub-G1 DNA content (sub-G1), G1 cells (G1), replicating early-mid S phase cells (Early-Mid S/EdU+), replicating mid-late S phase cells (Mid-Late S/EdU+), cells with S phase DNA content but not replicating (2n<& <4n/EdU−), and cells either in G2 or mitosis (G2/M).(d-f) MCF10A cells were mock treated or treated with 10 μM XL413, in the presence or absence of increasing concentrations of the CDK8 inhibitor BI-1347, for 24 hours. (d) Cells were labelled with EdU for last 30 minutes and DNA synthesis, DNA content and cell cycle distribution were assessed by flow cytometry and analysed using the gating strategy described in above (FIG. 2c). (e) Distribution of cells in the cell cycle. (f) Fluorescence intensity, proportional to EdU incorporation, in individual S phase cells. Long and short horizontal black lines indicate the median and the interquartile range, respectively, extending from the 25th to the 75th percentile for ˜3,810 cells for each condition. Data is from a single experiment.
FIG. 3: CDK8 activity is required for efficient DNA synthesis under conditions of limited CDC7 kinase activity (a-c) MCF10A cells were mock treated or treated with 31 nM BI-1347, in the presence or absence of increasing concentrations of the CDC7 inhibitors, XL413 (a-c) and TAK-931 (d-f), for 24 hours. (a and d) Cells were labelled with EdU for last 30 minutes and DNA synthesis, DNA content and cell cycle distribution were assessed by flow cytometry and analysed using the gating strategy described in FIG. 2c.c (b and e) distribution of cells in the cell cycle. (c and f) Fluorescence intensity, proportional to EdU incorporation, in individual S phase cells. Long and short horizontal black lines indicate the median and the interquartile range, respectively, extending from the 25th to the 75th percentile for ˜4,190 cells for each condition. Data is from a single experiment.
To analyse the cell cycle and DNA synthesis, nascent DNA was labelled by incubating cells with 10 μM EdU for either 20 or 30 minutes prior to harvest, washing with PBS, and then by resuspension in PBS containing 70% EtOH for 1 hour at −20° C. After a PBS wash, incorporated EdU was labelled by incubating cells in click reaction buffer (PBS containing 10 μM 6-Carboxyfluorescine-TEG-azide, 10 mM Sodium-L-ascorbate, 2 mM Copper-II-Sulphate) for 30 minutes protected from light. Cells were washed in PBS containing 1% BSA, 5% Tween 20 and then DNA stained in PBS containing 1% BSA and 1 μg/ml DAPI. All washes involve: centrifugation at 400×g for 5 minutes, removal of supernatant from pellet, resuspension in the appropriate buffer, recentrifugation and removal of supernatant from the pellet prior to the next step.
Fluorescence intensity data for 6-Carboxyfluorescine (488_530_30 nm) and DAPI (405_450_50 nm) were acquired for 10,000 single cells on a BD FACS Canto II and analysed using FlowJo software. To further analyse fluorescence intensity, proportional to EdU incorporation, for individual cells, gates were applied on DAPI-EdU biparametric dot plots to select for EdU positive S phase cells using FlowJo. According to the required analysis these gates included either all S phase cells, or only early or late S phase cells. Fluorescence intensity (488_530_30) values per cell were exported and plotted as scatter dot plots using GraphPad prism. For comparisons of mean fluorescence intensity of a cell population across three biological repeat experiments, all fluorescence intensity values were normalised to the maximum fluorescence intensity of the untreated control sample of each respective experiment to account for absolute differences in EdU staining. […]

[3] = tested on: MDA-MB-231; experiment: as above; details: 31 nM BI-1347 with 1.25 μM XL413, 24 hours
Procedure: (§1) Supplemental FIG. 3: Characteristic phenotypes associated with inhibition of CDC7 and CDK8 are observed in multiple cell lines A panel of different cell lines, including: MDA-MB-468 (a-c); MDA-MB-231 (d-f); and U-2 OS (g-i), were mock treated or treated with 1.25 μM XL413 and/or 31 nM BI-1347BI-1347 for 24 hours. Cells were labelled with EdU for last 30 minutes and DNA synthesis, DNA content and cell cycle distribution were assessed by flow cytometry and analysed using the gating strategy described in FIG. 2c. (b, e and h) distribution of cells in the cell cycle. (c, f and i) Fluorescence intensity, proportional to EdU incorporation, in individual S phase cells. Long and short horizontal black lines indicate the median and the interquartile range, respectively, extending from the 25th to the 75th percentile for ˜3,922 (MDA-MB-468), ˜3,291 (MDA-MB-231), and ˜4,628 (U-2 OS) cells for each condition. Data is from a representative experiment from 3 biological repeats. […]
(§2) Fluorescence intensity data for 6-Carboxyfluorescine (488_530_30 nm) and DAPI (405_450_50 nm) were acquired for 10,000 single cells on a BD FACS Canto II and analysed using FlowJo software. To further analyse fluorescence intensity, proportional to EdU incorporation, for individual cells, gates were applied on DAPI-EdU biparametric dot plots to select for EdU positive S phase cells using FlowJo. […] Fluorescence intensity (488_530_30) values per cell were exported and plotted as scatter dot plots using GraphPad prism. For comparisons of mean fluorescence intensity of a cell population across three biological repeat experiments, all fluorescence intensity values were normalised to the maximum fluorescence intensity of the untreated control sample of each respective experiment to account for absolute differences in EdU staining. The mean fluorescence intensity values of these cell populations across three biological repeat experiments are expressed as a ratio relative to a control sample and plotted as a scatter dot plot using GraphPad prism.

[4] = tested on: U-2 OS; experiment: as above; details: 31 nM BI-1347 with 1.25 μM XL413, 24 hours
Procedure: as §1, §2

[5] = tested on: MDA-MB-468; experiment: as above; details: 31 nM BI-1347 with 1.25 μM XL413, 24 hours
Procedure: as §1, §2

[6] = BI-1347 alone at increasing concentrations, 24 hours
[7] = CDC7 inhibitor alone at increasing concentrations, absence of CDK8/CDK19i, 24 hours
[8] = CDC7 inhibitor at increasing concentrations together with the CDK8/CDK19 inhibitor (31 nM BI-1347), 24 hours, all doses tested

## CN(C)C(=O)Cn1ccc(-c2ccc(-c3cncc4ccccc34)cc2)c1 [BI-1347]
[1]
  decrease in the relative staining intensity (crystal violet): approximately 30%
[2]; [6]
  cell cycle distribution: dose-dependent increase in G1 phase cells with a corresponding decrease in early-mid S phase cells
  rate of DNA synthesis in S phase cells: subtle and dose-independent decrease
[2]; BI-1347 in combination with CDC7 inhibitors, decrease in rate of DNA synthesis
  increase in the potency of the CDC7 inhibitor in replication assays: ~10 fold
[3]
  potentiation of cell cycle and DNA replication phenotypes imposed by CDC7 inhibition: strong potentiation
[4]
  potentiation of cell cycle and DNA replication phenotypes imposed by CDC7 inhibition: strong potentiation
[5]
  potentiation of cell cycle and DNA replication phenotypes imposed by CDC7 inhibition: strong potentiation

## Cc1n[nH]cc1-c1cc2[nH]c([C@@H]3CC4CCN3CC4)nc(=O)c2s1 [TAK-931]
[2]; [7]
  cell cycle distribution: dose-dependent accumulation of mid-late S phase cells
  rate of DNA synthesis of S phase cells: corresponding decrease
[2]; [8]
  cell cycle distribution: more pronounced accumulation of cells in mid-late S phase
  rate of DNA synthesis: much more profound decrease
